# Data from patent US11078213B2, “Thienopyrimidine compound, preparation method thereof, pharmaceutical composition and application thereof” (HONGYUN BIOTECH CO., LTD., priority 2016, dated 2021).
# Columns and labels:
# NPM-ALK-BaF3 = biological target: T1, NPM-ALK-BaF3 (Homo sapiens, UniProt Q9UM73); assay: Growth inhibition of BaF3 cells stably transfected with kinase NPM-ALK (MTS); format: cell-based; details: compound concentration 3.3 μM, read-out: cell growth inhibition rate, NPM-ALK
# T1 construct: NPM (nuclear phosphoprotein / nucleophosmin, NPM1, P06748) fusion partner; expressed in transfected cells; host or cells: BaF3; the other entry of the earlier key: NPM1 (P06748, Nucleophosmin)
# Protocol: (§1) The specific test method is given as follows:
# (§2) 2) Reagent: MTS reaction solution (containing 2 mg/mL of MTS [3-(4,5-dimethylthiazol-2-yl)-5-(3-carboxymethoxyphenyl)-2-(4-sulfophenyl)-2H-tetra zolium, inner Salt]; 100 µg/mL PES ([…])).
# EML4-ALK-BaF3 = biological target: T2, EML4-ALK-BaF3 (Homo sapiens, UniProt Q9UM73); assay: Growth inhibition of BaF3 cells stably transfected with kinase EML4-ALK (MTS); format: cell-based; details: compound concentration 3.3 μM, read-out: cell growth inhibition rate, EML4-ALK
# T2 construct: EML4 (echinoderm microtubule associated protein like 4, Q9HC35) fusion partner; expressed in transfected cells; host or cells: BaF3; the other entry of the earlier key: EML4 (Q9HC35, Echinoderm microtubule-associated protein-like 4)
# Protocol: as §1, §2
# [1] = test system: kinase ALK-positive lung cancer cell line H3122; assay: Growth inhibitory activity on tumor cells H3122; format: cell-based
# Protocol: (§3) If the tumor cells tested were suspension cells, the assay was carried out in accordance with the method (1) above.
# (§4) If the tumor cells tested were adherent cells, cells were incubated 1000-10000 cells/well in a 96-well culture plate until adherent, and then compounds were added. Others were carried out in accordance with the method (1) above.
# [2] = test system: anaplastic large cell lymphoma Karpas-299; assay: Growth inhibitory activity on tumor cells Karpas-299; format: cell-based; details: for IC50: Homo sapiens, Karpas-299 tumor cells
# Protocol: as §3, §4
# wild-type BaF3 = assay: Growth inhibition of wild-type BaF3 cells (broad-spectrum toxicity); format: cell-based; details: Mus musculus, read-out: Growth inhibitory activity IC50, BaF3
# Protocol: (§6) The cell plate with uniformly mixed compound was cultured in a cell culture incubator (37° C.; 5% CO2) for 48 h, then 20 μL of MTS reaction solution was added, uniformly mixed and incubated in the cell culture incubator (37° C.; 5% CO2) for 1-4 hr; OD values at 490 nm were measured by a microplate reader (VARIOSKAN FLASH, Thermo). Three parallels were set in each group of experiments, with 0.1% (a final concentration) DMSO as a negative control, and a medium without cells or compounds as a blank control.
# (§7) 4) IC50 calculation: The semi-inhibitory concentration of the compound acting on cell growth was calculated using GradPad Prism 5 software according to the measured cell growth inhibition rate.
# [3] = biological target: T3, EML4-ALK(G1202R)-Ba/F3 xenograft (Homo sapiens, UniProt Q9UM73, G1202R); assay: Nude mouse xenograft model of EML4-ALK(G1202R)-Ba/F3; format: in vivo, BALB/c (nu/nu) nude mice; details: 10 consecutive days
# T3 construct: EML4 (Q9HC35) fusion partner; expressed in transfected cells; host or cells: Ba/F3; the other entry of the earlier key: EML4 (Q9HC35, Echinoderm microtubule-associated protein-like 4)
# Protocol: (§5) In this test, BALB/c (nu/nu) nude mice were used, male and female in half, 4-6 weeks old, weighing about 18±2 g, and fed in SPF level environment, strictly sterile operation. The animals to be tested were adapted to the experimental environment 1 week in advance, free access to food and water, and maintained a 12-hour circadian rhythm.
# The EML4-ALK(G1202R)-Ba/F3 cells used in the test were cultured with 10% fetal bovine serum in PRMI-1640 medium, and placed in a 37° C., 5% CO2 incubator environment.
# A subcutaneous transplantation model of tumor nude mice was established by using cell inoculation method: cells in logarithmic growth phase were collected by filtration, washed with PBS after centrifugation, and resuspended as a single cell suspension with PRMI-1640 medium, 1×10^6 cells/200 μL per nude mouse. The cell suspension was injected subcutaneously in the vicinity of right anterior axillary of a nude mouse using a 1 mL syringe (No. 4.5 needle). When the tumor of tumor-bearing mice grew to a measurable size, the tumor volume was measured daily. When the tumor volume reached about 150 mm^3, the mice were randomly divided into 3 groups, 8 mice each group, and administration was started on the day of grouping. The administration component was IB-1 60 mg/kg (once/day), 40 mg/kg (twice/day, bid), orally administered for 10 consecutive days, and negative control group was administered an equal amount of solvent. Animal weight and tumor size were measured daily during the test. The state of the mice was recorded daily. After the last administration, the mice were anesthetized with 5% chloral hydrate and killed 6 hours. The tumors were taken, weighed and photographed for recording. Tumor Volume (TV) was calculated as: TV=½×a×b^2, where a, b represent long diameter and short diameter of tumor, respectively.
# NCI-H3122 xenograft = assay: Nude mouse xenograft model of non-small cell lung cancer H3122 cells; format: in vivo, BALB/c (nu/nu) nude mice; details: 18 consecutive days
# Protocol: as §5
# The NCI-H3122 cells used in the test were cultured with 10% fetal bovine serum in PRMI-1640 medium, and placed in a 37° C., 5% CO2 incubator environment.
# A subcutaneous transplantation model of tumor nude mice was established by using cell inoculation method: cells in logarithmic growth phase were collected by filtration, washed with PBS after centrifugation, and resuspended as a single cell suspension with PRMI-1640 medium, 5×10^6 cells/200 μL per nude mouse. The cell suspension was injected subcutaneously in the vicinity of right anterior axillary of a nude mouse using a 1 mL syringe (No. 4.5 needle). When the tumor of tumor-bearing mice grew to a measurable size, the tumor volume was measured daily. When the tumor volume reached about 150 mm^3, the mice were randomly divided into 4 groups, 5 mice each group, and administration was started on the day of grouping. […] The administration was conducted for 18 consecutive days. Animal weight and tumor size were measured every other day during the test. The state of the mice was recorded daily. After the last administration, the mice were anesthetized with 5% chloral hydrate and killed 6 hours. The tumors were taken, weighed and photographed for recording. Tumor Volume (TV) was calculated as: TV=½×a×b^2, where a, b represent long diameter and short diameter of tumor, respectively.
# [4] = biological target: EML4-ALK-I1171T BaF3 cells (Homo sapiens, UniProt Q9UM73, I1171T); assay: Growth inhibition of BaF3 cells stably transfected with ALK point mutation I1171T; details: read-out: Growth inhibitory activity IC50, EML4-ALK-I1171T
# Protocol: as §6, §7
# [5] = biological target: EML4-ALK-G1202R BaF3 cells (Homo sapiens, UniProt Q9UM73, G1202R); assay: Growth inhibition of BaF3 cells stably transfected with ALK point mutation G1202R; details: read-out: Growth inhibitory activity IC50, EML4-ALK-G1202R
# Protocol: as §6, §7
# [6] = biological target: EML4-ALK-S1206Y BaF3 cells (Homo sapiens, UniProt Q9UM73, S1206Y); assay: Growth inhibition of BaF3 cells stably transfected with ALK point mutation S1206Y; details: read-out: Growth inhibitory activity IC50, EML4-ALK-S1206Y
# Protocol: as §6, §7
# [7] = biological target: EML4-ALK-G1269A BaF3 cells (Homo sapiens, UniProt Q9UM73, G1269A); assay: Growth inhibition of BaF3 cells stably transfected with ALK point mutation G1269A; details: read-out: Growth inhibitory activity IC50, EML4-ALK-G1269A
# EML4-ALK-G1269A BaF3 cells, sequence (Q9UM73 1058-1620 G1269A limits assumed): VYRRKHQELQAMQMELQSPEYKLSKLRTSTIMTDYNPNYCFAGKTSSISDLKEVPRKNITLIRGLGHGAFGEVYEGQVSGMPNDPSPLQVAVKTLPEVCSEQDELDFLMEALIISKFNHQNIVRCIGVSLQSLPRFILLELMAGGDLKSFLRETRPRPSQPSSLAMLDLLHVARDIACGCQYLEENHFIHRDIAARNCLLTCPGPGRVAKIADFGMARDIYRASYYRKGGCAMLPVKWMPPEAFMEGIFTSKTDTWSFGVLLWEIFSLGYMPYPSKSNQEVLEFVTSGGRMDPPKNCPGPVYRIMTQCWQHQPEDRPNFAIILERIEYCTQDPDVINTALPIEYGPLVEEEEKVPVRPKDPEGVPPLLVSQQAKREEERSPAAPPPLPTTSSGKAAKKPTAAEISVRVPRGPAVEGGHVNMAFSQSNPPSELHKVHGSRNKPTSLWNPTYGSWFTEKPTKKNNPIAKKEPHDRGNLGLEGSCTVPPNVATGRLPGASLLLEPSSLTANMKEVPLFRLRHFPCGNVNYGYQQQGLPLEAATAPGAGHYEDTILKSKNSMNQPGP
# Protocol: as §6, §7
# T3 sequence (Q9UM73 1058-1620 G1202R limits assumed): as the sequence (Q9UM73 1058-1620 G1269A limits assumed) above, with G145R, A212G counted along it
# T1 sequence (Q9UM73 with tags, fused parts or gaps): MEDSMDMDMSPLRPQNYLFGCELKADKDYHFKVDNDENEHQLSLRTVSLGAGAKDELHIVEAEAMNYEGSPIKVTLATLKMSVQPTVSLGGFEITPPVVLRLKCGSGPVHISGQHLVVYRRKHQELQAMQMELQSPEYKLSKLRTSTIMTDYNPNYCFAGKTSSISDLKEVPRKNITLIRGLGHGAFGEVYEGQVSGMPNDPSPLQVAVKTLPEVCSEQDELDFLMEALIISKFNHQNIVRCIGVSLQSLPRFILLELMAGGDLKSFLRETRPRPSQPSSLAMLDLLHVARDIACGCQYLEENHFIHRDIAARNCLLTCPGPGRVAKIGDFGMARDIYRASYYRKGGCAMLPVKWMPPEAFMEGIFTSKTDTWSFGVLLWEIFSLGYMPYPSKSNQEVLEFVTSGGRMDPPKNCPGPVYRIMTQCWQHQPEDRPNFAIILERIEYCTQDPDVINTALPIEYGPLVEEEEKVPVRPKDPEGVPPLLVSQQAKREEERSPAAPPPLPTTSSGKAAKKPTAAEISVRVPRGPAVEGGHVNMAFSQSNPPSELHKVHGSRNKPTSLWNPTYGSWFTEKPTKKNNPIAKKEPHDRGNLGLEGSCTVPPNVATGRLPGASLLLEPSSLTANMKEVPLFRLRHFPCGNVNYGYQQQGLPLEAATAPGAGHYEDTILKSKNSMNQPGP
# T2 sequence (Q9UM73 1058-1620 limits assumed): as the sequence (Q9UM73 1058-1620 G1269A limits assumed) above, with A212G counted along it
# EML4-ALK-I1171T BaF3 cells, sequence (Q9UM73 1058-1620 I1171T limits assumed): as the sequence (Q9UM73 1058-1620 G1269A limits assumed) above, with I114T, A212G counted along it
# EML4-ALK-G1202R BaF3 cells, sequence (Q9UM73 1058-1620 G1202R limits assumed): as the sequence (Q9UM73 1058-1620 G1269A limits assumed) above, with G145R, A212G counted along it
# EML4-ALK-S1206Y BaF3 cells, sequence (Q9UM73 1058-1620 S1206Y limits assumed): as the sequence (Q9UM73 1058-1620 G1269A limits assumed) above, with S149Y, A212G counted along it
SMILES,inhibition at 3.3 µM (NPM-ALK-BaF3),inhibition at 3.3 µM (EML4-ALK-BaF3),other results
COc1cc2c(cc1Nc1nc(Nc3ccccc3[S+]([O-])C(C)C)c3sccc3n1)N(C(=O)CN(C)C)CC2 (centres unmarked) [IJ-1],87.1%,> 99%,
COC(=O)c1ccccc1Nc1nc(Nc2cc(C)c(C3CCN(C)CC3)cc2OC(C)C)nc2ccsc12 [IE-7],86.1%,98.8%,
COc1cc(N2CCC(N3CCCC3)CC2)ccc1Nc1nc(Nc2ccccc2S(C)(=O)=O)c2sccc2n1 [IA-3],92.7%,99.8%,
COc1cc2c(cc1Nc1nc(Nc3ccccc3S(=O)(=O)C(C)C)c3sccc3n1)N(C(=O)CN(C)C)CC2 [IB-1],96.7%,87.3%,"inhibitory activity against H3122 (in words) [1]: good inhibitory activity; IC50 ([1]; Homo sapiens, NCI-H3122, H3122 tumor cells): 15 nM; inhibitory activity against Karpas-299 (in words) [2]: good inhibitory activity; IC50 [2]: < 4 nM; IC50 (wild-type BaF3): 1600 nM; tumor growth ([3]; 40 mg/kg (twice/day, bid) orally): significantly inhibited tumor growth; tumor growth ([3]; 60 mg/kg (once/day) orally): significantly inhibited tumor growth; body weight during administration ([3]; drug group): no significant changes in body weight; side effects ([3]; drug group): no obvious side effects; tumor growth (NCI-H3122 xenograft; 30 mg/kg (once/day) orally): significantly inhibited tumor growth; tumor growth (NCI-H3122 xenograft; 50 mg/kg (once/day) orally): significantly inhibited tumor growth; body weight during administration (NCI-H3122 xenograft; drug group): no significant changes in body weight; side effects (NCI-H3122 xenograft; drug group): no obvious side effects; IC50 [4]: < 4 nM; IC50 [5]: 10 nM; IC50 [6]: < 4 nM; IC50 [7]: < 4 nM"
CNC(=O)c1cccc(F)c1Nc1nc(Nc2ccc(N3CCN(C)CC3)cc2OC)nc2ccsc12 [IF-3],12%,87.1%,
COC(=O)c1ccccc1Nc1nc(Nc2cc(C)c(C3CCN(C)CC3)cc2OC)nc2ccsc12 [IE-8],84.2%,98%,
"C[C@@H](Oc1cc(-c2cnn(C3CCNCC3)c2)cnc1N)c1c(Cl)ccc(F)c1Cl [Crizotinib, reference compound]",,,IC50 [2]: 61 nM
COc1cc(N2CCC(N3CCCC3)CC2)ccc1Nc1nc(Nc2cccc(NS(C)(=O)=O)c2)c2sccc2n1 [IG-5],10.9%,> 99%,
COC(=O)c1ccccc1Nc1nc(Nc2ccc(N3CCC(N4CCCC4)CC3)cc2OC)nc2ccsc12 [IE-5],87.6%,99%,
COC(=O)c1ccccc1Nc1nc(Nc2ccc(N3CCC(N4CCN(C)CC4)CC3)cc2OC)nc2ccsc12 [IE-1],69.5%,97%,
COC(=O)c1cccc(Nc2nc(Nc3ccc(N4CCC(N5CCCC5)CC4)cc3OC)nc3ccsc23)c1 [ID-4],90.7%,98.5%,
COC(=O)c1ccccc1Nc1nc(Nc2ccc(N3CCN(C)CC3)cc2OC)nc2ccsc12 [IE-3],85.5%,96.7%,
COc1cc(C2CCN(C)CC2)c(C)cc1Nc1nc(Nc2ccccc2NS(C)(=O)=O)c2sccc2n1 [IH-5],84.2%,98%,
CNC(=O)c1ccccc1Nc1nc(Nc2ccc(N3CCC(N4CCCC4)CC3)cc2OC)nc2ccsc12 [II-7],79.5%,98.5%,
